Source: EP4667464A1 (Cyrus Therapeutics Inc., priority 2023, dated 2024)
Read-outs that look alike come from different tables or passages of the source.

Experiments:
[1] = target: T1, SOS1 (Homo sapiens, UniProt Q07889); assay: SOS-catalyzed nucleotide exchange assay (HTRF, SOS1-mediated GTP loading of KRAS G12D); type: biochemical
T1 construct: HIS-SOS1cat (160 nM; Cytoskeleton, US); His (N); purchased Cytoskeleton
T1 sequence (Q07889 564-1049 limits assumed): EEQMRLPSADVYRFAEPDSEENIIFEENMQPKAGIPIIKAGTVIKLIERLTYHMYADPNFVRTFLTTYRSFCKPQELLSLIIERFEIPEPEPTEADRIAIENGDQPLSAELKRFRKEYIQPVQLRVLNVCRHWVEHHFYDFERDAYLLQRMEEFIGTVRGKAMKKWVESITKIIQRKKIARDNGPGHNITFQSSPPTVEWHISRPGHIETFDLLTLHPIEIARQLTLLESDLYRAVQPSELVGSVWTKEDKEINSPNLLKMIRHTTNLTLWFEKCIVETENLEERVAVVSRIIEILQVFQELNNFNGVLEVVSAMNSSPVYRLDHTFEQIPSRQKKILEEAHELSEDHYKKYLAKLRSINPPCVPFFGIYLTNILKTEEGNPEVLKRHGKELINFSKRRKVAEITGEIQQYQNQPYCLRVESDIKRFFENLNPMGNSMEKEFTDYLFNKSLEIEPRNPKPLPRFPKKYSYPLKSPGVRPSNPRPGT

[2] = target: T2, KRAS G12C::SOS1 (Homo sapiens, UniProt Q07889); assay: KRAS G12C::SOS1 protein-protein interaction (PPI) inhibition assay (HTRF); type: binding
T2 construct: purchased CISBIO 64KRASG12PEH
T2 sequence (Q07889 1-1333): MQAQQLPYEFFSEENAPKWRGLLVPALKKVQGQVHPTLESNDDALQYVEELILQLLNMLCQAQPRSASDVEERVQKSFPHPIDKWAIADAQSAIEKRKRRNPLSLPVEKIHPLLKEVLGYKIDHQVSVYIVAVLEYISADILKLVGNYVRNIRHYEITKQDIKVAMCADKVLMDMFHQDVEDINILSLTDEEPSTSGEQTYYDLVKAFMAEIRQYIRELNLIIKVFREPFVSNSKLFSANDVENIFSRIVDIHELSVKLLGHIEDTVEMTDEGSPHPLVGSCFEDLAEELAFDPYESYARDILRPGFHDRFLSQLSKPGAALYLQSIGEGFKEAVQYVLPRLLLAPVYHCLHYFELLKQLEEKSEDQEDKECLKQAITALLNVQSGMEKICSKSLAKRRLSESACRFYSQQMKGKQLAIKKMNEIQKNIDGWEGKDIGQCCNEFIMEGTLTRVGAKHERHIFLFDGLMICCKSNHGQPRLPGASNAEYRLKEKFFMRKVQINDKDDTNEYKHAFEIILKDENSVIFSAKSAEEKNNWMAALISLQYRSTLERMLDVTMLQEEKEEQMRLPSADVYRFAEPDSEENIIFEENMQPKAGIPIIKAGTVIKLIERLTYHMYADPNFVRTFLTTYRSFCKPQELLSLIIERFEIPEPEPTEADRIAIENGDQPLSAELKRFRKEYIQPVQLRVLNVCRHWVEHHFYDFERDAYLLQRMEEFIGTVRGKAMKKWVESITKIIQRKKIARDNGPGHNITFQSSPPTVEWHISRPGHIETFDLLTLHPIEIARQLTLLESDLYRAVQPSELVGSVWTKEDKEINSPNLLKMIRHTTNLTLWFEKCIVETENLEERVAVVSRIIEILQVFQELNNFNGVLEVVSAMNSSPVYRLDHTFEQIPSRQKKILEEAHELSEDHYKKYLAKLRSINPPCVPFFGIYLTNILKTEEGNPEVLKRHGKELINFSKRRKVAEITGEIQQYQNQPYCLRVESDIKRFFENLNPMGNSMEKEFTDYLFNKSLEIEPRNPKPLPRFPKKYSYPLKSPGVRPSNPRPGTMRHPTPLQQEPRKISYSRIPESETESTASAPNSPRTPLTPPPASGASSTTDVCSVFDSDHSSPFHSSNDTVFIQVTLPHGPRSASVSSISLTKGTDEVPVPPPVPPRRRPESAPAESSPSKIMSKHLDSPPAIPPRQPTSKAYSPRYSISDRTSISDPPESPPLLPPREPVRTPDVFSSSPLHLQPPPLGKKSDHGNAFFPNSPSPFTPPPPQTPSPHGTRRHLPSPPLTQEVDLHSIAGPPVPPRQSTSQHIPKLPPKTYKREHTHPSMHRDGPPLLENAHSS
Method in brief: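 Compounds, at eight 3-fold dilutions from 3 µM, were mixed with GTP-loaded Tag1-KRAS G12C, Tag2-SOS1 and a terbium-cryptate donor plus XL665 acceptor antibody pair. After 2 h at room temperature, time-resolved FRET reported the KRAS–SOS1 interaction.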

[3] = system: lung cancer cell line NCI-H358 having the KRAS G12C variant; assay: Cancer cell growth inhibition, 3D spheroids (CellTiter-Glo 3D); type: cell-based; conditions: read-out: H358 cell viability
Procedure: Thereafter, the plate with the cells cultured was adapted to room temperature for 10 minutes, and then 50 µL of CellTiter-Glo® 3D Cell Viability Assay (PROMEGA, G9683) solution was dispensed, and reacted on a horizontal stirrer at a speed of 300 RPM for 30 minutes to induce the cell lysis. […] Thereafter, based on the measured values, the degree of cell growth in the well treated with each compound was calculated when the final cell density value of the well not treated with the test substance was set to 100%.

[4] = GST-KRAS G12D, HIS-SOS1cat, compound 128 pM to 10 µM, read-out: SOS-catalyzed nucleotide exchange assay
[5] = 8 concentrations from 3 µM, three replicates, read-out: KRAS G12C::SOS1 PPI
[6] = 3D spheroids, 0.002-10 µM, 5 days
[7] = Homo sapiens, NCI-H358, 120 h, 3D spheroids, 0.002-10 µM, 5 days

Compound	IC50 [1, 4]	IC50 [2, 5]	IC50 [3, 6]	IC50 [3, 7]	IC50 [1]	IC50 [2]	IC50 ([3]; Homo sapiens, NCI-H358, 120 h)
N-[(1R)-1-[5-amino-3-(difluoromethyl)-2-fluoro-phenyl]ethyl]-5-methyl-1-[5-(3-methyltriazol-4-yl)-3-pyridyl]-6-oxo-pyridazine-3-carboxamide [Example 2-3]	< 50 nM	< 50 nM	< 1000 nM				
C[C@@H](NC(=O)c1ccc(=O)n(-c2cc(-c3cnnn3C)cnc2F)n1)c1cccc(C(F)(F)F)c1F [Example 6-7, N-{(R)-1-[2-fluoro-3-(trifluoromethyl)phenyl]ethyl}-1-[2-fluoro-5-(1-methyl-1H-1,2,3-triazol-5-yl)-3-pyridyl]-6-oxo-1,6-dihydropyridazine-3-carboxamide]	< 50 nM	< 50 nM		< 1000 nM			
C[C@@H](NC(=O)c1cc(CO)c(=O)n(-c2cncc(-c3cnnn3C3CC3)c2)n1)c1cccc(C(F)(F)F)c1F [Example 6-3]					< 50 nM	< 50 nM	< 1000 nM
CC(=O)c1cc(C(=O)N[C@H](C)c2cccc(C(F)(F)F)c2F)nn(-c2cncc(-c3cnnn3C)c2)c1=O [Example 1-62, N-{(R)-1-[2-fluoro-3-(trifluoromethyl)phenyl]ethyl}-5-acetyl-1-[5-(1-methyl-1H-1,2,3-triazol-5-yl)-3-pyridyl]-6-oxo-1,6-dihydropyridazine-3-carboxamide]	50 to 150 nM	< 50 nM		< 1000 nM			
Cc1cc(C(=O)N[C@H](C)c2cccc(C(F)(F)CO)c2F)nn(-c2cncc(-c3cnnn3C)c2)c1=O [Example 1-23, N-[(1R)-1-[3-(1,1-difluoro-2-hydroxy-ethyl)-2-fluoro-phenyl]ethyl]-5-methyl-1-[5-(3-methyltriazol-4-yl)-3-pyridyl]-6-oxo-pyridazine-3-carboxamide]	< 50 nM	< 50 nM		< 1000 nM			
C[C@@H](NC(=O)c1ccc(=O)n(-c2cncc(-c3cnnn3C)c2)n1)c1cccc(C2(C)CC2)c1F [Example 1-33, N-[(1R)-1-[2-fluoro-3-(1-methylcyclopropyl)phenyl]ethyl]-1-[5-(3-methyltriazol-4-yl)-3-pyridyl]-6-oxo-pyridazine-3-carboxamide]		> 150 nM		> 3000 nM			
(R)-3-bromo-N-(1-(2-fluoro-3-(trifluoromethyl)phenyl)ethyl)-5'-(1-methyl-1H-1,2,3-triazol-5-yl)-2-oxo-2H-[1,3'-bipyridine]-5-carboxamide [Example 1-22]	> 150 nM	50 to 150 nM	< 1000 nM				
Cc1c([C@@H](C)NC(=O)c2cc(C)c(=O)n(-c3cncc(-c4cnnn4C)c3)n2)cc(N)cc1C(F)(F)F [Example 2-6, N-[(1R)-1-[5-amino-2-methyl-3-(trifluoromethyl)phenyl]ethyl]-5-methyl-1-[5-(3-methyltriazol-4-yl)-3-pyridyl]-6-oxo-pyridazine-3-carboxamide]	< 50 nM	< 50 nM		< 1000 nM			
C[C@@H](NC(=O)c1ccc(=O)n(-c2cncc(-c3cnnn3C3CCC3)c2)n1)c1cccc(C(F)(F)F)c1F [Example 1-54, N-[(1R)-1-[2-fluoro-3-(trifluoromethyl)phenyl]ethyl]-1-[5-(1-cyclobutyl-1H-1,2,3-triazol-5-yl)-3-pyridyl]-6-oxo-pyridazine-3-carboxamide]	< 50 nM	50 to 150 nM		< 1000 nM			
C[C@@H](NC(=O)c1cc(C#N)c(=O)n(-c2cncc(-c3cnnn3C)c2)n1)c1cccc(C(F)(F)F)c1F [Example 3-2, 5-cyano-N-{(1R)-1-[2-fluoro-3-(trifluoromethyl)phenyl]ethyl}-1-[5-(1-methyl-1H-1,2,3-triazol-5-yl)-3-pyridyl]-6-oxo-1,6-dihydropyridazine-3-carboxamide]	50 to 150 nM	50 to 150 nM		< 1000 nM			
C[C@@H](NC(=O)c1cc(C2CC2)c(=O)n(-c2cncc(-c3cnnn3C)c2)c1)c1cccc(C(F)(F)F)c1F [Example 7, (R)-3-cyclopropyl-N-(1-(2-fluoro-3-(trifluoromethyl)phenyl)ethyl)-5'-(1-methyl-1H-1,2,3-triazol-5-yl)-2-oxo-2H-[1,3'-bipyridine]-5-carboxamide]	< 50 nM	< 50 nM		< 1000 nM			
C[C@@H](NC(=O)c1ccc(=O)n(-c2cncc(-c3cnnn3C)c2)n1)c1cccc(C(F)F)c1F [Example 1-1, N-[(1R)-1-[3-(difluoromethyl)-2-fluoro-phenyl]ethyl]-1-[5-(3-methyltriazol-4-yl)-3-pyridyl]-6-oxo-pyridazine-3-carboxamide]	50 to 150 nM	< 50 nM		< 1000 nM			
C[C@@H](NC(=O)c1ccc(=O)n(-c2cncc(-c3cnnn3C)c2)n1)c1cc(N)cc(C(F)F)c1 [Example 2, N-[(1R)-1-[3-amino-5-(difluoromethyl)phenyl]ethyl]-1-[5-(3-methyltriazol-4-yl)-3-pyridyl]-6-oxo-pyridazine-3-carboxamide]				< 1000 nM	50 to 150 nM	50 to 150 nM	
C[C@@H](NC(=O)c1cc(-c2ccccc2)c(=O)n(-c2cncc(-c3cnnn3C)c2)n1)c1cccc(C(F)(F)F)c1F [Example 1-63, N-{(R)-1-[2-fluoro-3-(trifluoromethyl)phenyl]ethyl}-1-[5-(1-methyl-1H-1,2,3-triazol-5-yl)-3-pyridyl]-6-oxo-5-phenyl-1,6-dihydropyridazine-3-carboxamide]	50 to 150 nM	50 to 150 nM		< 1000 nM			
[2H]C([2H])([2H])c1cc(C(=O)N[C@H](C)c2cccc(C(F)F)c2F)nn(-c2cncc(-c3cnnn3C)c2)c1=O [Example 7-2, N-{(R)-1-[3-(difluoromethyl)-2-fluorophenyl]ethyl}-5-[methyl-trideuterio]-1-[5-(1-methyl-1H-1,2,3-triazol-5-yl)-3-pyridyl]-6-oxo-1,6-dihydropyridazine-3-carboxamide]	50 to 150 nM	< 50 nM		< 1000 nM			
CCc1cc(C(=O)N[C@H](C)c2cccc(C(F)(F)CO)c2F)nn(-c2cncc(-c3cnnn3C3CC3)c2)c1=O [Example 1-42, N-{(R)-1-[3-(1,1-difluoro-2-hydroxyethyl)-2-fluorophenyl]ethyl}-1-[5-(1-cyclopropyl-1H-1,2,3-triazol-5-yl)-3-pyridyl]-5-ethyl-6-oxo-1,6-dihydropyridazine-3-carboxamide]	< 50 nM	< 50 nM		< 1000 nM			
